Reference: ChEMBL document CHEMBL3580621, “The Hippo Pathway and YAP/TAZ-TEAD Protein-Protein Interaction as Targets for Regenerative Medicine and Cancer Treatment” (J Med Chem, 2015)

Species on record: Homo sapiens
Test: Inhibition of HA-tagged YAP/Gal4-tagged TEAD (unknown origin) interaction at 2.5 uM by Coimmunoprecipitation assay

inhibition: > 50%
Sequence: VERTEPORFIN
